Reference: US20240425500A1 (priority 2021, published 2024)

Columns and labels:
[1] = system: Plasmopara viticola; assay: whole plant or invertebrate; assay type: in vivo; settings: foliar, read-out: control of Plasmopara viticola compared to untreated control
[2] = system: Pythium ultimum; assay: Pythium ultimum / liquid culture (seedling damping off); assay type: cell-based; settings: Globisporangium ultimum, liquid culture in PDB, 24 °C, 2-3 days after application, read-out: control of Pythium ultimum (inhibition of growth, photometric) compared to untreated control
In short: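 Mycelia fragments and oospores from fresh liquid culture mixed into potato dextrose broth and added to compound in DMSO. Incubated at 24° C.; growth inhibition read photometrically 2–3 days after application.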

[3] = system: Phytophthora infestans; assay: whole plant or invertebrate; assay type: in vivo; settings: in Solanum lycopersicum, foliar, read-out: control of Phytophthora infestans compared to untreated control

COCN(C(=O)c1ccc2ncc(-c3ccc(NC(=O)OC)nc3)n2c1)c1ccc(F)c(OC)c1 [Compound 93, methyl N-[5-[6-[(4-fluoro-3-methoxy-phenyl)-(methoxymethyl)carbamoyl]imidazo[1,2-a]pyridin-3-yl]-2-pyridyl]carbamate]
≥ 80%: pest or weed control at 200 ppm [1] | inhibition at 20 ppm [2] | pest or weed control at 200 ppm [3]

COC(=O)Nc1ccc(-c2cnc3ccc(C(=O)N(C)c4ccc(C#N)c(OC)c4)cn23)cn1 [Compound 51, methyl N-[5-[6-[(4-cyano-3-methoxy-phenyl)-methyl-carbamoyl]imidazo[1,2-a]pyridin-3-yl]-2-pyridyl]carbamate]
≥ 80%: pest or weed control at 200 ppm [1] | inhibition at 20 ppm [2] | pest or weed control at 200 ppm [3]

COC(=O)Nc1ccc(-c2cnc3ccc(C(=O)N(C)c4ccc(F)c(OC)c4)cn23)cn1 [Compound 45, methyl N-[5-[6-[(4-fluoro-3-methoxy-phenyl)-methyl-carbamoyl]imidazo[1,2-a]pyridin-3-yl]-2-pyridyl]carbamate]
≥ 80%: pest or weed control at 200 ppm [1] | inhibition at 20 ppm [2] | pest or weed control at 200 ppm [3]

COC(=O)Nc1ccc(-c2cnc3ccc(C(=O)N(C)c4ccc(Cl)cc4)cn23)cc1 [Compound 2, methyl N-[4-[6-[(4-chlorophenyl)-methyl-carbamoyl]imidazo[1,2-a]pyridin-3-yl]phenyl]carbamate]
≥ 80%: pest or weed control at 200 ppm [1] | inhibition at 20 ppm [2] | pest or weed control at 200 ppm [3]

COC(=O)Nc1ccc(-c2cnc3c(NC(C)=O)cc(C(=O)N(C)c4ccc(F)c(OC)c4)cn23)cn1 [Compound 169, methyl N-[5-[8-acetamido-6-[(4-fluoro-3-methoxy-phenyl)-methyl-carbamoyl]imidazo[1,2-a]pyridin-3-yl]-2-pyridyl]carbamate]
≥ 80%: pest or weed control at 200 ppm [1] | inhibition at 20 ppm [2] | pest or weed control at 200 ppm [3]

COC(=O)Nc1ccc(-c2cnc3ccc(C(=O)N(C)c4ccc(F)c(F)c4)cn23)cn1 [Compound 50, methyl N-[5-[6-[(3,4-difluorophenyl)-methyl-carbamoyl]imidazo[1,2-a]pyridin-3-yl]-2-pyridyl]carbamate]
≥ 80%: pest or weed control at 200 ppm [1] | inhibition at 20 ppm [2] | pest or weed control at 200 ppm [3]

COC(=O)Nc1ccc(-c2cnc3ccc(C(=O)N(CC#N)c4ccc(Cl)cc4)cn23)cc1 [Compound 31, methyl N-[4-[6-[(4-chlorophenyl)-(cyanomethyl)carbamoyl]imidazo[1,2-a]pyridin-3-yl]phenyl]carbamate]
≥ 80%: pest or weed control at 200 ppm [1] | inhibition at 20 ppm [2] | pest or weed control at 200 ppm [3]

COC(=O)Nc1ccc(-c2cnc3ccc(C(=O)N(C)c4ccc(Cl)cc4)cn23)cn1 [Compound 4, methyl N-[5-[6-[(4-chlorophenyl)-methyl-carbamoyl]imidazo[1,2-a]pyridin-3-yl]-2-pyridyl]carbamate]
≥ 80%: pest or weed control at 200 ppm [1] | inhibition at 20 ppm [2] | pest or weed control at 200 ppm [3]
